# From ChEMBL document CHEMBL3885881, “DrugMatrix”
# Species: Rattus norvegicus
# Experiment: DrugMatrix - Regimen: Daily Repeat
# Format: toxicity, organism-based, Sprague-Dawley
# Set-up: regimen Daily Repeat, gender Male, age 6-8 weeks
# Conditions: in vivo, po, route oral GAVAGE, […]; for ABSOLUTE BASOPHIL / ABSOLUTE EOSINOPHIL / ABSOLUTE LYMPHOCYTE / ABSOLUTE MONOCYTE / ABSOLUTE SEGMENTED NEUTROPHIL / BASOPHIL / EOSINOPHIL / ERYTHROCYTE COUNT / HEMATOCRIT / HEMOGLOBIN / LEUKOCYTE COUNT / LYMPHOCYTE / MEAN CORPUSCULAR HEMOGLOBIN / MEAN CORPUSCULAR HEMOGLOBIN CONCENTRATION / MEAN CORPUSCULAR VOLUME / MONOCYTE / NEUTROPHIL / NUCLEATED RED BLOOD CELLS / PLATELET COUNT: tissue Blood; for ALANINE AMINOTRANSFERASE / ALBUMIN / ALKALINE PHOSPHATASE / ASPARTATE AMINOTRANSFERASE / BLOOD UREA NITROGEN / CARBON DIOXIDE / CHLORIDE / CHOLESTEROL / CREATINE PHOSPHOKINASE / CREATININE / GLUCOSE / LACTATE DEHYDROGENASE / LIPASE / PHOSPHORUS / POTASSIUM / SODIUM / TOTAL BILIRUBIN / TOTAL PROTEIN / URIC ACID: tissue Plasma
# [1] = 0 mg/kg, 72 h, dose level Control, time 3 day
# [2] = 0 mg/kg, 120 h, dose level Control, time 5 day
# [3] = 13 mg/kg, 72 h, dose level Low, time 3 day
smiles,measurement,setting,value
CN(C)c1nc(N(C)C)nc(N(C)C)n1 [ALTRETAMINE],ABSOLUTE BASOPHIL,[1],0 CELLS/uL
same,ABSOLUTE EOSINOPHIL,[1],70.67 CELLS/uL
same,ABSOLUTE LYMPHOCYTE,[1],12761.5 CELLS/uL
same,ABSOLUTE MONOCYTE,[1],214.17 CELLS/uL
same,ABSOLUTE SEGMENTED NEUTROPHIL,[1],987 CELLS/uL
same,BASOPHIL,[1],0%
same,EOSINOPHIL,[1],0.5%
same,ERYTHROCYTE COUNT,[1],5.61 x10E6/uL
same,HEMATOCRIT,[1],35.22%
same,HEMOGLOBIN,[1],13.57 G/DL
same,LEUKOCYTE COUNT,[1],14.03 x10E3/uL
same,LYMPHOCYTE,[1],91%
same,MEAN CORPUSCULAR HEMOGLOBIN,[1],24.25 pg
same,MEAN CORPUSCULAR HEMOGLOBIN CONCENTRATION,[1],38.52 G/DL
same,MEAN CORPUSCULAR VOLUME,[1],62.9 fL
same,MONOCYTE,[1],1.5%
same,NEUTROPHIL,[1],7%
same,NUCLEATED RED BLOOD CELLS,[1],0 /100WBC
same,PLATELET COUNT,[1],997.5 x10E3/uL
same,ALANINE AMINOTRANSFERASE,[1],66.5 u/L
same,ALBUMIN,[1],3.98 G/DL
same,ALKALINE PHOSPHATASE,[1],350 u/L
same,ASPARTATE AMINOTRANSFERASE,[1],83.83 u/L
same,BLOOD UREA NITROGEN,[1],12.33 mg/dL
same,CARBON DIOXIDE,[1],30.33 mmol/L
same,CHLORIDE,[1],100 MEQ/L
same,CHOLESTEROL,[1],75 mg/dL
same,CREATINE PHOSPHOKINASE,[1],200 u/L
same,CREATININE,[1],0.17 mg/dL
same,GLUCOSE,[1],170 mg/dL
same,LACTATE DEHYDROGENASE,[1],89.33 u/L
same,LIPASE,[1],10.33 u/L
same,PHOSPHORUS,[1],10.88 mg/dL
same,POTASSIUM,[1],6.13 MEQ/L
same,SODIUM,[1],140.53 MEQ/L
same,TOTAL BILIRUBIN,[1],0.2 mg/dL
same,TOTAL PROTEIN,[1],5.67 G/DL
same,URIC ACID,[1],1.6 mg/dL
same,ABSOLUTE BASOPHIL,[2],0 CELLS/uL
same,ABSOLUTE EOSINOPHIL,[2],0 CELLS/uL
same,ABSOLUTE LYMPHOCYTE,[2],9526.67 CELLS/uL
same,ABSOLUTE MONOCYTE,[2],134.17 CELLS/uL
same,ABSOLUTE SEGMENTED NEUTROPHIL,[2],922.5 CELLS/uL
same,BASOPHIL,[2],0%
same,EOSINOPHIL,[2],0%
same,ERYTHROCYTE COUNT,[2],5.58 x10E6/uL
same,HEMATOCRIT,[2],34.78%
same,HEMOGLOBIN,[2],13.5 G/DL
same,LEUKOCYTE COUNT,[2],10.58 x10E3/uL
same,LYMPHOCYTE,[2],90.17%
same,MEAN CORPUSCULAR HEMOGLOBIN,[2],24.27 pg
same,MEAN CORPUSCULAR HEMOGLOBIN CONCENTRATION,[2],38.82 G/DL
same,MEAN CORPUSCULAR VOLUME,[2],62.48 fL
same,MONOCYTE,[2],1.17%
same,NEUTROPHIL,[2],8.67%
same,NUCLEATED RED BLOOD CELLS,[2],0.17 /100WBC
same,PLATELET COUNT,[2],807.17 x10E3/uL
same,ALANINE AMINOTRANSFERASE,[2],66.83 u/L
same,ALBUMIN,[2],3.73 G/DL
same,ALKALINE PHOSPHATASE,[2],286.17 u/L
same,ASPARTATE AMINOTRANSFERASE,[2],142.33 u/L
same,BLOOD UREA NITROGEN,[2],14.67 mg/dL
same,CARBON DIOXIDE,[2],25.5 mmol/L
same,CHLORIDE,[2],89.17 MEQ/L
same,CHOLESTEROL,[2],75.17 mg/dL
same,CREATINE PHOSPHOKINASE,[2],310.67 u/L
same,CREATININE,[2],0.2 mg/dL
same,GLUCOSE,[2],153 mg/dL
same,LACTATE DEHYDROGENASE,[2],1594 u/L
same,LIPASE,[2],14.83 u/L
same,PHOSPHORUS,[2],11.28 mg/dL
same,POTASSIUM,[2],8.46 MEQ/L
same,SODIUM,[2],126.88 MEQ/L
same,TOTAL BILIRUBIN,[2],0.37 mg/dL
same,TOTAL PROTEIN,[2],5.53 G/DL
same,URIC ACID,[2],1.52 mg/dL
same,ABSOLUTE BASOPHIL,[3],0 CELLS/uL
same,ABSOLUTE EOSINOPHIL,[3],45.67 CELLS/uL
same,ABSOLUTE LYMPHOCYTE,[3],11954 CELLS/uL
same,ABSOLUTE MONOCYTE,[3],232.67 CELLS/uL
same,ABSOLUTE SEGMENTED NEUTROPHIL,[3],1567.67 CELLS/uL
same,BASOPHIL,[3],0%
same,EOSINOPHIL,[3],0.33%
same,ERYTHROCYTE COUNT,[3],5.86 x10E6/uL
same,HEMATOCRIT,[3],37.47%
same,HEMOGLOBIN,[3],14.6 G/DL
same,LEUKOCYTE COUNT,[3],13.8 x10E3/uL
same,LYMPHOCYTE,[3],86.67%
same,MEAN CORPUSCULAR HEMOGLOBIN,[3],24.97 pg
same,MEAN CORPUSCULAR HEMOGLOBIN CONCENTRATION,[3],38.97 G/DL
same,MEAN CORPUSCULAR VOLUME,[3],64 fL
same,MONOCYTE,[3],1.67%
same,NEUTROPHIL,[3],11.33%
same,NUCLEATED RED BLOOD CELLS,[3],0 /100WBC
same,PLATELET COUNT,[3],1022.33 x10E3/uL
same,ALANINE AMINOTRANSFERASE,[3],99.33 u/L
same,ALBUMIN,[3],4.03 G/DL
same,ALKALINE PHOSPHATASE,[3],392.33 u/L
same,ASPARTATE AMINOTRANSFERASE,[3],89.67 u/L
same,BLOOD UREA NITROGEN,[3],12.33 mg/dL
same,CARBON DIOXIDE,[3],29 mmol/L
same,CHLORIDE,[3],99 MEQ/L
same,CHOLESTEROL,[3],87.33 mg/dL
same,CREATINE PHOSPHOKINASE,[3],288 u/L
same,CREATININE,[3],0.18 mg/dL
same,GLUCOSE,[3],161 mg/dL
same,LACTATE DEHYDROGENASE,[3],193 u/L
same,LIPASE,[3],10.67 u/L
same,PHOSPHORUS,[3],11.53 mg/dL
same,POTASSIUM,[3],6.64 MEQ/L
same,SODIUM,[3],140.43 MEQ/L
same,TOTAL BILIRUBIN,[3],0.23 mg/dL
same,TOTAL PROTEIN,[3],5.83 G/DL
same,URIC ACID,[3],1.97 mg/dL
